What was measured:
human EGF-R = biological target: T1, human EGF-R (Homo sapiens, UniProt P00533); assay: Inhibition of EGF-dependent proliferation of F/L-HERc cells; type: cell-based; settings: F/L-HERc cells (murine IL-3-dependent line expressing human EGF-R), stimulated with EGF 20 ng/ml, 48 hours, Cell Titer 96 assay
T1 construct: expressed in transfected cells; host or cells: F/L-HERc cells (murine IL-3-dependent FDC-P1 line, transduced with retroviral vector LXSN carrying human EGF-R cDNA; packaging line GP+E86)
T1 sequence (P00533 25-1210): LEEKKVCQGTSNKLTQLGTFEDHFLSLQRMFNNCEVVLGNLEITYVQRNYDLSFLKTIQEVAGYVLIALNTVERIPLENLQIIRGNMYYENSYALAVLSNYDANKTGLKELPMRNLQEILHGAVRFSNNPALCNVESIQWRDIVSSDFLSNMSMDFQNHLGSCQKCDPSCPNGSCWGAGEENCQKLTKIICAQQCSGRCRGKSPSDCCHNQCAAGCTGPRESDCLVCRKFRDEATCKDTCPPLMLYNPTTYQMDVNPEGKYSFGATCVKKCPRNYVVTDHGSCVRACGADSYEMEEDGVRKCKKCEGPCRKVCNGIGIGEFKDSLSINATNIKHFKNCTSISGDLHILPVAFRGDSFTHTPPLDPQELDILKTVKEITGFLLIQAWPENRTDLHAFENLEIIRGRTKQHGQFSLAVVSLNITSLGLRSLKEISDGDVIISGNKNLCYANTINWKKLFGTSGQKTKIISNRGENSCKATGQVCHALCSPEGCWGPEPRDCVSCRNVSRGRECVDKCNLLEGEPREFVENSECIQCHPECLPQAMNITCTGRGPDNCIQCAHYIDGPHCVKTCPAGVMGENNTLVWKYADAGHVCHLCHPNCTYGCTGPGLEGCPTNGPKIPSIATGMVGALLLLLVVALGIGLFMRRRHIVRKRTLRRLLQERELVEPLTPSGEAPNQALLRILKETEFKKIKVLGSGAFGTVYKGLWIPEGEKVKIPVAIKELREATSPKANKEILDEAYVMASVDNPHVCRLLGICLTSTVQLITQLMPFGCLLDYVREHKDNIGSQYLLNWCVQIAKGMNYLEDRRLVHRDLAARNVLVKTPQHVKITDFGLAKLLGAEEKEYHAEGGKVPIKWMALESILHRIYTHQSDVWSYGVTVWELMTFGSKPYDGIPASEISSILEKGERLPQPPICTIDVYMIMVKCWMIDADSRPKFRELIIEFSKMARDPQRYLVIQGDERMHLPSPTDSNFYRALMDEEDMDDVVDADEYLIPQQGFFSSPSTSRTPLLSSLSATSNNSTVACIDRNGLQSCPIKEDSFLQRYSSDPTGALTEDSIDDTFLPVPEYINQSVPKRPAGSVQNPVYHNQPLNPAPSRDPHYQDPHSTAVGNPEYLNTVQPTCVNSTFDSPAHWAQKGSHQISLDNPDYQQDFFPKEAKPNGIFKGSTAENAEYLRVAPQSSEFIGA
Description: A cell line of murine origin dependent on interleukin-3-(IL-3) which was genetically modified to express functional human EGF-R was used here. The proliferation of these cells known as F/L-HERc can therefore be stimulated either by murine IL-3 or by EGF (cf. von Rüden, T. et al. in EMBO J . 7, 2749-2756 (1988) and Pierce, J. H. et al. in Science 239, 628-631 (1988)).
The starting material used for the F/L-HERc cells was the cell line FDC-P1, the production of which has been described by Dexter, T. M. et al. in J. Exp. Med. 152, 1036-1047 (1980). Alternatively, however, other growth-factor-dependent cells may also be used (cf. for example Pierce, J. H. et al. in Science 239, 628-631 (1988), Shibuya, H. et al. in Cell 70, 57-67 (1992) and Alexander, W. S. et al. in EMBO J. 10, 3683-3691 (1991)). […]
In order to determine the inhibitory activity of the compounds according to the invention the relative cell number was measured in O.D. units using the Cell Titer 96™ Aqueous Non-Radioactive Cell Proliferation Assay (Promega). […]

Row | Structure (SMILES) | melting point [°C] | IC50 (human EGF-R) [nM]
1 | C=CC(=O)Nc1cc2c(Nc3ccc(F)c(Cl)c3)ncnc2cc1OCCN(C)C1COC(=O)C1 (stereo not shown) [Example 1(11), 4-[(3-chloro-4-fluorophenyl)amino]-7-{2-[N-(2-oxo-tetrahydrofuran4-yl)-N-methyl-amino]-ethoxy}-6-[(vinylcarbonyl)amino]-quinazoline] | 195 to 199 | 
2 | C=CC(=O)Nc1cc2c(Nc3ccc(F)c(Cl)c3)ncnc2cc1OCCCCN1CC(=O)OC(C)(C)C1 [Example 1(15), 4-[(3-chloro-4-fluorophenyl)amino]-7-[4-(2,2-dimethyl-6-oxo-morpholin-4-yl)-butyloxy]-6-[(vinylcarbonyl)amino]-quinazoline] | 110 to 112 | 
3 | C=CC(=O)Nc1cc2c(N[C@H](C)c3ccccc3)ncnc2cc1OCCN1CC(=O)OC(C)(C)C1 [1(2), 4-[(R)-(1-phenyl-ethyl)amino]-7-[2-(2,2-dimethyl-6-oxo-morpholin-4-yl)-ethoxy]-6-[(vinylcarbonyl)amino]-quinazoline] |  | 0.4
4 | C=CC(=O)Nc1cc2c(Nc3ccc(F)c(Cl)c3)ncnc2cc1OCCN1CC(=O)OC(C)(C)C1 [Example 1(1), 4-[(3-chloro-4-fluoro-phenyl)amino]-7-[2-(2,2-dimethyl-6-oxo-morpholin-4-yl)-ethoxy]-6-[(vinylcarbonyl)amino]-quinazoline] | 182.5 to 184 | 
